Data from paper PMC9369610, “Pro-Apoptotic and Pro-Autophagic Properties of Cardenolides from Aerial Parts of Pergularia tomentosa” (Molecules, 2022).

Key:
HepG2 cells [1] = experiment: MTT cell viability assay, IC50 in HepG2 cells; format: cell-based; settings: Homo sapiens, 24 h, SE less than 10% of value
Description: (§1) The human liver hepatocellular carcinoma cell line, HepG2, and the human adenocarcinoma of colon cell line, Caco-2, were cultured in Eagle’s Minimum Essential medium supplemented with 1% (v/v) non-essential amino acids, 0.2 mM L-glutamine, 50 units/mL penicillin, 50 μg/mL streptomycin and 10% (v/v) or 20% (v/v) fetal bovine serum (Sigma Aldrich, Milan, Italy) for HepG2 or Caco-2, respectively. The human embryonal lung fibroblast cell line, MRC5, was cultured in Dulbecco’s Modified Eagle medium (Sigma Aldrich, Milan, Italy) supplemented with 10% (v/v) fetal bovine serum, 0.2 mM L-glutamine, 50 units/mL penicillin and 50 μg/mL streptomycin. HUVEC cells were cultured in endothelial growth medium-2, supplemented with fetal bovine serum (2%), VEGF (0.1%), rH FGF-B (0.4%), rH EGF (0.1%), GA-1000 (0.1%), hydrocortisone (0.04%), R3-IGF-1 (0.1%), heparin (0.1%) and ascorbic acid (0.1%). Cells were maintained at 37 °C in a 5% CO2, 95% air-humidified atmosphere and passaged twice a week. Cell lines were obtained from Interlab Cell Line Collection, Istituto Nazionale per la Ricerca sul Cancro, Genoa, Italy. HUVEC were obtained from Lonza (Milan, Italy).
(§2) An MTT assay was used to analyse cell viability. Cells were seeded in 96 wells at the density of 2 × 10^4/cm^2 and, after 24 h, they were treated with P. tomentosa compounds or with the vehicle (DMSO). After a further 24 h of treatment, 0.5 mg/mL of MTT was added to the cell medium and incubated for 1.5 h at 37 °C. The resulting formazan crystals were dissolved in 100 μL of DMSO and absorbances were measured at 595 nm and 655 nm. The background signals at 655 nm were subtracted from 595 nm signals, and data were expressed as a percent of cell viability. The concentration of each compound that is required for 50% inhibition in vitro (IC50) was calculated as described in Husseini et al.. IC50 values were obtained for Caco-2, HepG2 and MRC5 cells by performing MTT assays with concentrations ranging from 0.01 μg/mL to 5 μg/mL.

HepG2 cells [2] = experiment: Scratch-wound-healing assay; format: cell-based, human; settings: HepG2, 1 μM, 24, 48 and 72 h
Description: Cells were seeded at a density of 5 × 10^4 cells/well in 24-well plates and allowed to grow for 72 h, reaching confluence. Mitomycin C (10 μg/mL) was added to inhibit proliferation, and then a sterile 2–10 μL pipette tip was used to perform a vertical scratch in the monolayer of each well. Detached cells were removed by washing with phosphate-buffered saline. Then, 300 μL of fresh medium containing P. tomentosa compounds (1 μM) or vehicle was added to each well and incubated for 72 h. Images of migrating cells were taken at 0, 24, 48 and 72 h, by using an Olympus CKX41 fluorescent microscope (Olympus Italia srl, Segrate, Italy) and elaborated by the ImageJ software. For each scratch, wound width was calculated as the average distance between the edges in four different sites. Then, reductions in wound wights at 24, 48 and 72 h were expressed as % of the width at time zero.

HepG2 cells [3] = experiment: TUNEL assay; format: cell-based, human; settings: HepG2, 1 μM, 24 h
Description: Microscopic evaluation of apoptosis was performed by a TUNEL assay, using a commercial kit (Fragment End Labelling (FragEL™), […]) DNA Fragmentation Detection Kit, Sigma-Aldrich, Milan, Italy) according to the manufacturer-provided protocol, with some modifications. Briefly, cells were seeded on glass cover slips placed in 24-well plates at a density of 3.5 × 10^3/cm^2 and, after 48 h, they were treated with 1 μΜ of each compound for a further 24 h. Cells were fixed in 3% paraformaldehyde for 10 min, permeabilised in 0.2% Triton X-100 for 5 min and treated with HCl 1.5 N for 8 min. Finally, cover slips were equilibrated in equilibration buffer (10 min) and incubated with label mix containing the TdT enzyme for 1 h at 37 °C, then mounted with mounting media. Microscope observations were performed by the AxioSkop 40 fluorescent microscope. Images were acquired with Axiocam MRc5 (Carl Zeiss MicroImaging, Inc., Jena, Germany).

HepG2 cells [4] = experiment: Transwell migration assay; format: cell-based, human; settings: HepG2, 1 μM, 18 h
Description: Transwell filters (coated with collagen) in serum-free media containing 0.1% of BSA, with a PET membrane with 8 μm pores (BD Biosciences, Milan, Italy), were rehydrated for 2 h at 37 °C. HepG2 were seeded in the upper chambers at a density of 75 × 10^3 cells in MEM with 0.1% BSA and treated with or without 1 µM of Pergularia compounds. MEM−0.1%BSA, supplemented with 10% FBS, was added to the lower chamber as chemoattractant. Control wells without 10% FBS were included to assess random migration. After incubation at 37 °C in 5% CO2 for 18 h, the migrated cells were fixed with 4% paraformaldehyde for 5 min, permeabilised with methanol for 20 min and stained with crystal violet 0.5% for 15 min at room temperature. The cells on the lower side of the filter were allowed to dry before counting. Eight separate bright-field images were randomly acquired of each filter using an Olympus CKX41 Image Analyzer. The cells in each image were counted and analysed compared to control-transfected cells.

HepG2 cells [5] = experiment: BrdU incorporation (proliferation) assay; format: cell-based, human; settings: HepG2, 1 μM, 24 h
Description: Cell proliferation was analysed by a BrdU (Roche Diagnostics SpA, Monza, Italy) incorporation assay, as previously described. Briefly, HepG2 cells, seeded at adensity of 3 × 10^3/cm^2 on round glass cover slips, were treated for 24 h with P. tomentosa compounds at 1 μM. Then, BrdU was added to cell medium (final concentration, 100 μM) for 1 h. Cells were fixed (in 3% paraformaldehyde, 10 min), permeabilised (in 0.2% Triton X-100, 5 min) and treated with HCl 1.5 N (5 min). Finally, cover slips were incubated with a monoclonal antibody against BrdU (Sigma-Aldrich, Milan, Italy), 1:100, and with a TRITC-conjugated secondary antibody, 1:100. After staining with Hoechst, cover slips were mounted with Mowiol (Sigma, Milan, Italy). […] Images were acquired with Axiocam MRc5 and processed with ImageJ Launcher. The number of cells into S-phase was expressed as the ratio between the number of cells incorporating BrdU and the total number of cells.

[6] = test system: HepG2, Caco-2, MRC5 and HUVEC cells; experiment: MTT assay, comparison of cytotoxic effects at 1 μM on four cell types; format: cell-based, human; settings: 24 h, Caco-2, HepG2, MRC5, HUVEC
Source text: We focused attention on 12β,6′-dihydroxycalotropin (1), 16α-hydroxycalotropin (2), 12β-hydroxycalactin (3), calotropin (4), and calactin (5), among those described by Hosseini et al., and tested their cytotoxic activity by a 3-(4,5-dime-thylthiazol-2-yl)-2,5-diphenylte-tetrazolium bromide (MTT) assay on two cancer cell lines (HepG2 and Caco-2), not previously employed, on an immortalised nontumoral cell line (MRC5) and normal primary cells (HUVEC).
Figure 2 Comparison of cytotoxic effects of P. tomentosa compounds on cancer cell lines (Caco-2 and HepG2), on an immortalised cell line (MRC5) and normal cells (HUVEC). Cells were treated for 24 h with 1 μM of each compound. Residual viability was measured by the MTT assay. Values are the means ± standard error (SE) of three independent experiments performed in triplicate. Statistical analysis was performed using the Student’s t-test. * p < 0.05 and ** p < 0.01 vs. cells treated with the vehicle (DMSO).
as §1, §2

Caco-2 cells = experiment: MTT cell viability assay, IC50 in Caco-2 cells; format: cell-based; settings: Homo sapiens, 24 h, SE less than 10% of value
Description: as §1, §2

MRC5 cells = experiment: MTT cell viability assay, IC50 in MRC5 cells; format: cell-based; settings: Homo sapiens, 24 h, SE less than 10% of value
Description: as §1, §2

caspase-3 in HepG2 cells [7] = experiment: Caspase-3 colorimetric activity assay; format: cell-based, human; settings: HepG2, 1 μM, 24 h
Description: To evaluate apoptosis, a caspase-3 colorimetric assay was performed. Briefly, HepG2 cell lines were seeded in plates of 60 mm diameter at a density of 3.5 × 10^4/cm^2 and, after 24 h, treated with P. tomentosa compounds (1 μM each) for 24 h. Then, cells were harvested in phosphate-buffered saline, collected by centrifugation and lysed in a buffer containing 50 mM HEPES, 0.1% CHAPS, 10 mM dithiothreitol, 100 mM NaCl, 1 mM EDTA and 10% sucrose. Proteins (30 μg) were incubated for 2 h at 37 °C in a reaction mixture containing the caspase-3 substrate (acetyl-Asp-Glu-Val-Asp, labelled with p-nitroanilide) (Sigma-aldrich, Milan, Italy) at a concentration of 0.2 mM. Finally, the release of free p-nitroanilide was monitored spectrophotometrically at 405 nm. Enzyme activity was expressed as percentage of absorption of treated cells versus vehicle-treated cells.

caspase-3 in HepG2 cells [8] = experiment: Western blot of cleaved caspase-3; format: cell-based, human; settings: HepG2, 2 μM, 7 h, Western blot densitometry
Description: To analyse the protein levels of p53, caspase-3, GRP78, LC3 and p62, HepG2 cells were treated with P. tomentosa compounds (1 or 2 μM) or with DMSO for the indicated times; then, Western blot analyses were performed. Briefly, cells were lysed in RIPA buffer (20 mM Tris-HCl, pH 7.5, 150 mM NaCl, 1 mM EDTA, 1 mM dithiothreitol, 0.1% sodium dodecyl sulphate, 1% triton X-100, 1 mM orthovanadate, and a cocktail of inhibitors (Sigma-Aldrich, Milan, Italy)). After separation on a sodium dodecyl sulphate-polyacrylamide gel electrophoresis and transfer to a poly-vinylidene fluoride membrane (Euroclone, Milan, Italy), the following primary antibodies were used, at a dilution of 1:1000 in tris-buffered saline containing 1% non-fat dry milk, overnight at 4 °C: mouse anti-p53 antibody, mouse anti-MAP LC3 β antibody, mouse anti-p62 antibody (DBA, Milan, Italy), mouse anti-GRP78 antibody, and mouse anti-caspase 3 antibody (Thermo Fisher Scientific, Milan, Italy). For normalisation, a mouse anti-GAPDH antibody (Microtech, Naples, Italy) was used.

XBP1 in HepG2 cells = experiment: XBP1 splicing detection; format: cell-based, human; settings: HepG2, 1 μM, 4 h
Description: To detect the unspliced and the spliced form of XBP1, we followed the protocol described by Martucciello et al.. After treatments for 4 h with 1 μM of each compound, or DMSO, or thapsigargin (1 μM), RNA was isolated and retro-transcripted. PCR analyses were performed with the following primers: 5′- […]-3′; 5′-[…]-3′. After 35 cycles (heating at 94 °C for 30 s, annealing at 58 °C for 45 s, and polymerisation at 72 °C for 60 s), amplified cDNA was visualised on 2.5% agarose gel, stained with an ethidium bromide solution.

| Structure (SMILES) | IC50 (HepG2 cells [1]) | effect on wound closure (HepG2 cells [2]) | apoptotic nuclei (TUNEL) (HepG2 cells [3]) | effect on transwell migration (HepG2 cells [4]) | effect on BrdU incorporation / cell cycle progression (HepG2 cells [5]) | relative cytotoxicity (residual viability, MTT) [6] | IC50 (Caco-2 cells) | IC50 (MRC5 cells) | caspase-3 activity (caspase-3 in HepG2 cells [7]) | cleaved caspase-3 (caspase-3 activation) (caspase-3 in HepG2 cells [8]) | reduction of number of cells that incorporated BrdU compared to the vehicle (HepG2 cells [5]) | XBP1 splicing (XBP1 in HepG2 cells) |
| --- | --- | --- | --- | --- | --- | --- | --- | --- | --- | --- | --- | --- |
| C[C@@]12C(C3=CC(=O)OC3)CC[C@]1(O)C1CCC3C[C@H]4O[C@@H]5O[C@H](CO)C[C@H](O)[C@]5(O)O[C@@H]4C[C@]3(C=O)C1C[C@H]2O (stereo partly drawn) [Compound 1, 12β,6′-dihydroxycalotropin] | 2.61 µM | interfered with the wound closure after 48 and 72 h | less evident | reduce migration | slightly (but not significantly) reduced BrdU incorporation | intermediate cytotoxicity | 1.54 µM | 2.21 µM |  |  |  |  |
| C[C@@H]1C[C@H](O)[C@]2(O)O[C@@H]3C[C@@]4(C=O)C(CCC5C4CC[C@]4(C)C(C6=CC(=O)OC6)[C@H](O)C[C@]54O)C[C@H]3O[C@@H]2O1 (stereo partly drawn) [Compound 2, 16α-hydroxycalotropin] | 2.34 µM | interfered with the wound closure at 72 h only | less evident |  | significantly affected cell cycle progression | intermediate cytotoxicity | 2.43 µM | 2.31 µM |  |  |  |  |
| C[C@@H]1C[C@@H](O)[C@]2(O)O[C@@H]3C[C@@]4(C=O)C(CCC5C4C[C@@H](O)[C@]4(C)C(C6=CC(=O)OC6)CC[C@]54O)C[C@H]3O[C@@H]2O1 (stereo partly drawn) [Compound 3, 12β-hydroxycalactin] | 6.29 µM | had an effect at 48 h only | undetectable | reduce migration | slightly (but not significantly) reduced BrdU incorporation | less cytotoxic | 4.51 µM | 5.98 µM | did not seem to affect enzyme activity |  |  |  |
| C[C@@H]1C[C@H](O)[C@]2(O)O[C@@H]3C[C@@]4(C=O)[C@@H](CC[C@@H]5[C@@H]4CC[C@]4(C)[C@@H](C6=CC(=O)OC6)CC[C@]54O)C[C@H]3O[C@@H]2O1 [Compound 4, calotropin] | 0.83 µM | not affect cell migration, at any time | occurrence of apoptotic nuclei |  | significantly affected cell cycle progression | most cytotoxic | 0.767 µM | 0.424 µM |  | most active | about 40% |  |
| C/C=C(/C)C(=O)O[C@H]1C(C)=C2[C@H]([C@@H]1OC(=O)CCCCCCC)[C@@](C)(OC(C)=O)C[C@H](OC(=O)CCC)[C@@]1(O)[C@H]2OC(=O)[C@@]1(C)O [thapsigargin] |  |  |  |  |  |  |  |  |  |  |  | appearance of the spliced form |
